Test: recombinant barcode read abundance after kanamycin selection (control-corrected) (log10(CPM+1)); higher = more efficient recombination; sequences stand for … in AGTGCAGAGAAAATCGGCCAGTTTTCTCTGCCTGCAGTCCGCATGCCGT…AGATTTATGCAGCGGACTGCCTTTCTCCCAAAGTGATAAACCGGACAGTATCATGGACCGGTTTTCCCGGTAATCCGTATTTGCAAGGTTGGTTTCACT; site = the 11-nt target
In short: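 Targets were screened in pooled form in E. coli against IS621 bridge RNA target-binding loops. Recombination efficiency is based on barcode counts at recombinant junctions in counts per million, averaged and corrected for the control. Numbers are shown as log10(CPM+1), with duplicate plates on chloramphenicol/ampicillin LB agar (control) or chloramphenicol/ampicillin/kanamycin with 0.1 mM IPTG.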
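Further: IS621 recombinase and bridge RNA in Escherichia coli cells.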

| Sequence | recombinant barcode read abundance (log10) |
| --- | --- |
| TCATCCGCTTGGGTTCTAACCTGTTGCCT (site CCATCCACTAG) | 0.12 |
| TCATCCGCTTGGGTTCTAACCTGTTGCCT (site TCATCCGCTAG) | 1.05 |
| TCCAAACCTTGGGTTCTAACCTGTTGCAG (site TCCAAACCTCT) | 0.898 |
| TCCAAACCTTGGGTTCTAACCTGTTGCAG (site TCCAACCCTCT) | 0.0235 |
| TCCAAACCTTGGGTTCTAACCTGTTGCAG (site TCCAAGCCTCT) | 0.151 |
| TCCAAACCTTGGGTTCTAACCTGTTGCAG (site TCCAATCCTCT) | 0.0156 |
| TCCAGTCCTTGGGTTCTAACCTGTTGCTG (site AGCAGTCCTCA) | 0.0888 |
| TCCAGTCCTTGGGTTCTAACCTGTTGCTG (site TCCAGTCCTCA) | 0.285 |
| TCCCAAGCTTGGGTTCTAACCTGTTGCTA (site TCCAAAGCTTA) | 0.589 |
| TCCCAAGCTTGGGTTCTAACCTGTTGCTA (site TCCCAAGCTTA) | 1.32 |
| TCCCAAGCTTGGGTTCTAACCTGTTGCTA (site TCCGAAGCTTA) | 0.0505 |
| TCCCAAGCTTGGGTTCTAACCTGTTGCTA (site TCCTAAGCTTA) | 0.141 |
| TCCCGACCTTGGGTTCTAACCTGTTGCCT (site TCCCGAACTAG) | 0.135 |
| TCCCGACCTTGGGTTCTAACCTGTTGCCT (site TCCCGACCTAG) | 1.72 |
| TCCCGACCTTGGGTTCTAACCTGTTGCCT (site TCCCGAGCTAG) | 0.107 |
| TCCCGACCTTGGGTTCTAACCTGTTGCCT (site TCCCGATCTAG) | 0.0793 |
| TCCCGCCCTTGGGTTCTAACCTGTTGCCT (site GCACGCCCTAG) | 0.0125 |
| TCCCGCCCTTGGGTTCTAACCTGTTGCCT (site TCCCGCCCTAG) | 0.464 |
| TCCCGGACTTGGGTTCTAACCTGTTGCCT (site TCACGGACTAG) | 0.212 |
| TCCCGGACTTGGGTTCTAACCTGTTGCCT (site TCCCGGACTAG) | 0.892 |

| Sequence | recombinant barcode read abundance (log10) |
| --- | --- |
| TCCCGGACTTGGGTTCTAACCTGTTGCCT (site TCGCGGACTAG) | 0 |
| TCCCGGACTTGGGTTCTAACCTGTTGCCT (site TCTCGGACTAG) | 0.1 |
| TCCGAAGCTTGGGTTCTAACCTGTTGCTA (site TCCAAAGCTTA) | 0.0181 |
| TCCGAAGCTTGGGTTCTAACCTGTTGCTA (site TCCCAAGCTTA) | 0.264 |
| TCCGAAGCTTGGGTTCTAACCTGTTGCTA (site TCCGAAGCTTA) | 0.29 |
| TCCGAAGCTTGGGTTCTAACCTGTTGCTA (site TCCTAAGCTTA) | 0.0103 |
| TCCGAGACTTGGGTTCTAACCTGTTGCCT (site TCCGAGACTAG) | 1.4 |
| TCCGAGACTTGGGTTCTAACCTGTTGCCT (site TCCGAGACTCG) | 0.048 |
| TCCGAGACTTGGGTTCTAACCTGTTGCCT (site TCCGAGACTGG) | 0.267 |
| TCCGAGACTTGGGTTCTAACCTGTTGCCT (site TCCGAGACTTG) | 0.157 |
| TCCGGAGCTTGGGTTCTAACCTGTTGCCG (site GTGAACCCTTT) | 0.0406 |
| TCCGGAGCTTGGGTTCTAACCTGTTGCCG (site TCCGGAGCTCG) | 0.652 |
| TCCGGTTCTTGGGTTCTAACCTGTTGCCT (site ACGGGTTCTAG) | 0.0897 |
| TCCGGTTCTTGGGTTCTAACCTGTTGCCT (site TCCGGTTCTAG) | 0.965 |
| TCCGTGGCTTGGGTTCTAACCTGTTGCCT (site TCCGTGACTAG) | 0.121 |
| TCCGTGGCTTGGGTTCTAACCTGTTGCCT (site TCCGTGCCTAG) | 0.261 |
| TCCGTGGCTTGGGTTCTAACCTGTTGCCT (site TCCGTGGCTAG) | 0.916 |
| TCCGTGGCTTGGGTTCTAACCTGTTGCCT (site TCCGTGTCTAG) | 0.244 |
| TCCGTGTCTTGGGTTCTAACCTGTTGCCT (site TCCGTGACTAG) | 0.0308 |
| TCCGTGTCTTGGGTTCTAACCTGTTGCCT (site TCCGTGCCTAG) | 0.241 |

| Sequence | recombinant barcode read abundance (log10) |
| --- | --- |
| TCCGTGTCTTGGGTTCTAACCTGTTGCCT (site TCCGTGGCTAG) | 0.0597 |
| TCCGTGTCTTGGGTTCTAACCTGTTGCCT (site TCCGTGTCTAG) | 2.24 |
| TCCTAGTCTTGGGTTCTAACCTGTTGCAG (site GGTCCTCCTTC) | 0.0984 |
| TCCTAGTCTTGGGTTCTAACCTGTTGCAG (site TCCTAGTCTCT) | 0.392 |
| TCCTATCCTTGGGTTCTAACCTGTTGCGT (site TCCCATCCTAC) | 0.9 |
| TCCTATCCTTGGGTTCTAACCTGTTGCGT (site TCCTATCCTAC) | 0.623 |
| TCCTGAGCTTGGGTTCTAACCTGTTGCTG (site TCCTGAGCTCA) | 0.405 |
| TCCTGAGCTTGGGTTCTAACCTGTTGCTG (site TCCTTAGCTCG) | 0.0103 |
| TCCTTCACTTGGGTTCTAACCTGTTGCCT (site TCCTTCACTAG) | 0.285 |
| TCCTTCACTTGGGTTCTAACCTGTTGCCT (site TCGTTCGCTAG) | 0.0665 |
| TCGAACTCTTGGGTTCTAACCTGTTGCTT (site TCGAACTCTAA) | 0.339 |
| TCGAACTCTTGGGTTCTAACCTGTTGCTT (site TCGCGCTCTAA) | 0.0841 |
| TCGAAGTCTTGGGTTCTAACCTGTTGCTA (site AGATCTCCTAC) | 0.0769 |
| TCGAAGTCTTGGGTTCTAACCTGTTGCTA (site TCGAAGTCTTA) | 0.272 |
| TCGAGGCCTTGGGTTCTAACCTGTTGCTA (site CATCCATCTAT) | 0.162 |
| TCGAGGCCTTGGGTTCTAACCTGTTGCTA (site TCGAGGCCTTA) | 0.0602 |
| TCGAGTCCTTGGGTTCTAACCTGTTGCGG (site TCGAGTCCTCC) | 1.08 |
| TCGAGTCCTTGGGTTCTAACCTGTTGCGG (site TTGAGGCCTCC) | 0 |
| TCGAGTGCTTGGGTTCTAACCTGTTGCAG (site CTACTATCTAC) | 0.0294 |
